Experimental data from ChEMBL document CHEMBL1201862, “PubChem BioAssay data set” (2004).
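96-well plates; 48 h exposure; 5 concentrations. Endpoints by linear interpolation between flanking doses. Not reached: highest tested concentration assigned. GI50 marks 50% less growth.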 Calls of active or inactive are those of the source. No stated cut-off is given here; in the data, active = GI50 up to about 1.1 µM and inactive = higher.

Columns and labels:
Assay in all cases: NCI-60 cell line screen, 48 h
HCC 2998 = tested on: HCC 2998
SW-620 = tested on: SW-620
SK-OV-3 = tested on: SK-OV-3
OVCAR-8 = tested on: OVCAR-8
K562 = tested on: K562
NCI-H460 = tested on: NCI-H460
SF-268 = tested on: SF-268
OVCAR-5 = tested on: OVCAR-5
KM12 = tested on: KM12
SN12C = tested on: SN12C
PC-3 = tested on: PC-3
MCF7 = tested on: MCF7
RXF 393 = tested on: RXF 393
HOP-62 = tested on: HOP-62
HCT-15 = tested on: HCT-15
NCI-H226 = tested on: NCI-H226
SK-MEL-2 = tested on: SK-MEL-2
UACC-257 = tested on: UACC-257
OVCAR-3 = tested on: OVCAR-3
SNB-75 = tested on: SNB-75
HL-60 = tested on: HL-60
NCI-H23 = tested on: NCI-H23
IGROV-1 = tested on: IGROV-1
EKVX = tested on: EKVX
MDA-N = tested on: MDA-N
SF-539 = tested on: SF-539
OVCAR-4 = tested on: OVCAR-4
786-0 = tested on: 786-0
MDA-MB-231 = tested on: MDA-MB-231
SK-MEL-5 = tested on: SK-MEL-5
HCT-116 = tested on: HCT-116
CCRF-CEM = tested on: CCRF-CEM
COLO 205 = tested on: COLO 205
U-251 = tested on: U-251
A498 = tested on: A498
Malme-3M = tested on: Malme-3M
UO-31 = tested on: UO-31
LOX IMVI = tested on: LOX IMVI
SR = tested on: SR
UACC-62 = tested on: UACC-62
MDA-MB-435 = tested on: MDA-MB-435
NCI/ADR-RES = tested on: NCI/ADR-RES
CAKI-1 = tested on: CAKI-1
MOLT-4 = tested on: MOLT-4
SF-295 = tested on: SF-295
ACHN = tested on: ACHN
Hs-578T = tested on: Hs-578T
SK-MEL-28 = tested on: SK-MEL-28
M14 = tested on: M14
HT-29 = tested on: HT-29
SNB-19 = tested on: SNB-19
NCI-H522 = tested on: NCI-H522
A549 = tested on: A549
T47D = tested on: T47D
DU-145 = tested on: DU-145
RPMI-8226 = tested on: RPMI-8226
HOP-92 = tested on: HOP-92

C=CCNC(=S)N/C=C(\C#N)C(N)=O
GI50 (HCC 2998): > 100 µM (inactive)
GI50 (SW-620): > 100 µM (inactive)
GI50 (SK-OV-3): > 100 µM (inactive)
GI50 (OVCAR-8): > 100 µM (inactive)
GI50 (K562): > 100 µM (inactive)
GI50 (NCI-H460): > 100 µM (inactive)
GI50 (SF-268): > 100 µM (inactive)
GI50 (OVCAR-5): > 100 µM (inactive)
GI50 (KM12): > 100 µM (inactive)
GI50 (SN12C): > 100 µM (inactive)
GI50 (PC-3): > 100 µM (inactive)
GI50 (MCF7): > 100 µM (inactive)
GI50 (RXF 393): > 100 µM (inactive)
GI50 (HOP-62): > 100 µM (inactive)
GI50 (HCT-15): > 100 µM
GI50 (NCI-H226): > 100 µM (inactive)
GI50 (SK-MEL-2): > 100 µM (inactive)
GI50 (UACC-257): > 100 µM (inactive)
GI50 (OVCAR-3): > 100 µM (inactive)
GI50 (SNB-75): > 100 µM (inactive)
GI50 (HL-60): > 100 µM (inactive)
GI50 (NCI-H23): > 100 µM (inactive)
GI50 (IGROV-1): > 100 µM (inactive)
GI50 (EKVX): > 100 µM (inactive)
GI50 (MDA-N): > 100 µM (inactive)
GI50 (SF-539): > 100 µM (inactive)
GI50 (OVCAR-4): > 100 µM (inactive)
GI50 (786-0): > 100 µM (inactive)
GI50 (MDA-MB-231): > 100 µM (inactive)
GI50 (SK-MEL-5): > 100 µM (inactive)
GI50 (HCT-116): > 100 µM (inactive)
GI50 (CCRF-CEM): > 100 µM (inactive)
GI50 (COLO 205): > 100 µM (inactive)
GI50 (U-251): > 100 µM (inactive)
GI50 (A498): > 100 µM (inactive)
GI50 (Malme-3M): > 100 µM (inactive)
GI50 (UO-31): > 100 µM (inactive)
GI50 (LOX IMVI): > 100 µM (inactive)
GI50 (SR): > 100 µM (inactive)
GI50 (UACC-62): > 100 µM (inactive)
GI50 (MDA-MB-435): > 100 µM (inactive)
GI50 (NCI/ADR-RES): > 100 µM (inactive)
GI50 (CAKI-1): > 100 µM (inactive)
GI50 (MOLT-4): > 100 µM (inactive)
GI50 (SF-295): > 100 µM (inactive)
GI50 (ACHN): > 100 µM (inactive)
GI50 (Hs-578T): > 100 µM (inactive)
GI50 (SK-MEL-28): > 100 µM (inactive)
GI50 (M14): > 100 µM (inactive)
GI50 (HT-29): > 100 µM (inactive)
GI50 (SNB-19): > 100 µM (inactive)
GI50 (NCI-H522): > 100 µM (inactive)
GI50 (A549): > 100 µM (inactive)
GI50 (T47D): > 100 µM (inactive)
GI50 (DU-145): > 100 µM (inactive)
GI50 (RPMI-8226): > 100 µM (inactive)

CN(C)Cc1cc(C(=O)/C=C/c2ccc(Cl)c(Cl)c2)cc(CN(C)C)c1O
GI50 (HCC 2998): 3.4 µM (inactive)
GI50 (SW-620): 1.45 µM (inactive)
GI50 (OVCAR-8): 1.68 µM (inactive)
GI50 (K562): 1.31 µM (inactive)
GI50 (NCI-H460): 2.12 µM (inactive)
GI50 (SF-268): 3.05 µM (inactive)
GI50 (OVCAR-5): 8.83 µM (inactive)
GI50 (KM12): 1.82 µM (inactive)
GI50 (SN12C): 2.25 µM (inactive)
GI50 (PC-3): 1.96 µM (inactive)
GI50 (MCF7): 2.48 µM (inactive)
GI50 (RXF 393): 2.48 µM (inactive)
GI50 (HOP-62): 2.24 µM (inactive)
GI50 (HCT-15): 2.84 µM
GI50 (NCI-H226): 3.77 µM (inactive)
GI50 (UACC-257): 2.31 µM (inactive)
GI50 (OVCAR-3): 1.59 µM (inactive)
GI50 (SNB-75): 2.07 µM (inactive)
GI50 (HL-60): 0.826 µM (active)
GI50 (HOP-92): 0.598 µM (active)
GI50 (NCI-H23): 5.69 µM (inactive)
GI50 (IGROV-1): 3.37 µM (inactive)
GI50 (EKVX): 8.36 µM (inactive)
GI50 (MDA-N): 3.08 µM (inactive)
GI50 (SF-539): 2.77 µM (inactive)
GI50 (OVCAR-4): 4.61 µM (inactive)
GI50 (786-0): 1.36 µM (inactive)
GI50 (MDA-MB-231): 2.68 µM (inactive)
GI50 (SK-MEL-5): 1.6 µM (inactive)
GI50 (HCT-116): 2.77 µM (inactive)
GI50 (CCRF-CEM): 1.89 µM (inactive)
GI50 (COLO 205): 1.29 µM (inactive)
GI50 (U-251): 3.08 µM (inactive)
GI50 (A498): 3.17 µM (inactive)
GI50 (Malme-3M): 2.88 µM (inactive)
GI50 (UO-31): 1.83 µM (inactive)
GI50 (LOX IMVI): 0.716 µM (active)
GI50 (MDA-MB-435): 3.26 µM (inactive)
GI50 (NCI/ADR-RES): 2.24 µM (inactive)
GI50 (CAKI-1): 1.13 µM (inactive)
GI50 (MOLT-4): 3.18 µM (inactive)
GI50 (SF-295): 3.38 µM (inactive)
GI50 (ACHN): 1.67 µM (inactive)
GI50 (Hs-578T): 3.04 µM (inactive)
GI50 (SK-MEL-28): 2.57 µM (inactive)
GI50 (M14): 2.02 µM (inactive)
GI50 (HT-29): 1.24 µM (inactive)
GI50 (SNB-19): 2.56 µM (inactive)
GI50 (NCI-H522): 1.56 µM (inactive)
GI50 (A549): 2.39 µM (inactive)
GI50 (T47D): 4.41 µM (inactive)
GI50 (DU-145): 4.84 µM (inactive)
GI50 (RPMI-8226): 1.99 µM (inactive)
